Experimental data from ChEMBL document CHEMBL1201862, “PubChem BioAssay data set” (2004).
Blank lines part the entries; values can stand above or below the compound they belong to. Activity calls are given as the source filed them.

Legend:
[1] = inhibitors of intracellular T. cruzi replication, confirmation, NIH3T3 host cells, beta-gal luminescence (AID 2044); type: functional, cell-based;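 also: intracellular parasites grown in NIH/3T3 mouse fibroblasts as host cells; luminescent beta-galactosidase reporter signal from transgenic T. cruzi replicating inside host cells; inhibitors lower the luminescence signal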
[2] = inhibitors of Bluetongue virus cytopathic effect, confirmation, arbovirus, BSR cells (AID 1250); type: functional;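 also: protection from viral cytopathic effect measured as cell viability by ATP luminescence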
[3] = cytotoxicity toward NIH3T3 fibroblasts, dose response, counter-screen, cell-based, ATP luminescence, mouse fibroblasts (AID 2010); type: functional;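 also: cells exposed to compound for about 90 hours before reading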
[4] = target: Polyadenylate-binding protein 1 (Homo sapiens, UniProt P11940); assay: PABP inhibition in translation initiation, SAR follow-up (AID 435018); type: functional
[5] = target: Eukaryotic translation initiation factor 4H (Homo sapiens, UniProt Q15056); assay: eIF4H inhibition in translation initiation, SAR follow-up (AID 435011); type: functional
Aspartyl aminopeptidase = target: T1, Aspartyl aminopeptidase (Plasmodium falciparum 3D7, UniProt Q8I2J3); assay: Counterscreen for inhibitors of M1 and M17 aminopeptidases: QFRET-based biochemical high throughput dose response assay for inhibitors of the Plasmodium falciparum M18 Aspartyl Aminopeptidase (PFM18AAP). [Related PubChem assays: 1619 (Screening assay (M17LAP inhibitors).), 1445 (Screening assay (M1AAP inhibitors).)]
T1 sequence (Q8I2J3 whole entry): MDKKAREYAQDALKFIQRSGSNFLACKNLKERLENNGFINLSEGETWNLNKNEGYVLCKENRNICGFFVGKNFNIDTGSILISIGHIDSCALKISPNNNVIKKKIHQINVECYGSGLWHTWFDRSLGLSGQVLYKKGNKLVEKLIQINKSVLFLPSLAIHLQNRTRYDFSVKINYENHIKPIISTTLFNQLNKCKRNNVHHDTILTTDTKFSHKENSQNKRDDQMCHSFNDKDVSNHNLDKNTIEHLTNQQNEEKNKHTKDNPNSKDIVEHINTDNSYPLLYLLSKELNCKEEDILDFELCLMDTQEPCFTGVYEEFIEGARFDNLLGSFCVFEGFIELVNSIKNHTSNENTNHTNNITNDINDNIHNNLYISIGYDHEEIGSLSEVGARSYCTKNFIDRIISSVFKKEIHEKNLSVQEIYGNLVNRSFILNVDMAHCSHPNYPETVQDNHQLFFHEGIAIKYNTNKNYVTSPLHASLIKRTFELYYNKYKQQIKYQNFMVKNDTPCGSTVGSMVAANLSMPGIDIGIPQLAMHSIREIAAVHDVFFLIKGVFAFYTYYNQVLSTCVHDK

Leucine aminopeptidase = target: T2, Leucine aminopeptidase (Plasmodium falciparum 3D7, UniProt Q8IL11); assay: P. falciparum M17LAP inhibitors, primary screen, biochemical, fluorogenic H-Leu-NHMec substrate, 1536-well (AID 1619); type: functional
T2 sequence (Q8IL11 whole entry): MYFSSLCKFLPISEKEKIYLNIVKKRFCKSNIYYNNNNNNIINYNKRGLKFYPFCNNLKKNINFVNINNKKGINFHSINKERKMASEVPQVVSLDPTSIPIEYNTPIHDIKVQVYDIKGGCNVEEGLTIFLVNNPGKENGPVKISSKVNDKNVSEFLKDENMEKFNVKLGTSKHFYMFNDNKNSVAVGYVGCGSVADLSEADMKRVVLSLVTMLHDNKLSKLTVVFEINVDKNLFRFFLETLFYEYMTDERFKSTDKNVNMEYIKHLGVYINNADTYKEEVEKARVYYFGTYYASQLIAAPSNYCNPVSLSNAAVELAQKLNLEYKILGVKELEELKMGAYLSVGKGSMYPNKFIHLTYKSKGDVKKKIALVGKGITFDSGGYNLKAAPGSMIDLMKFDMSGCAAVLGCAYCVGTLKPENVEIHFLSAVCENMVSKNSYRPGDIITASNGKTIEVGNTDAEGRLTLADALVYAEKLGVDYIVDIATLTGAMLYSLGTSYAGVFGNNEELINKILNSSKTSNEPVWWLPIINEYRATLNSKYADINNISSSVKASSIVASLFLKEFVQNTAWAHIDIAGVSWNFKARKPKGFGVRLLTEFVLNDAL

Procathepsin L = Procathepsin L (Homo sapiens, UniProt P07711); assay: cathepsin L inhibitors, dose response, counter-screen for M1/M17 aminopeptidase inhibitor project, biochemical, QFRET, 1536-well (AID 2214)
Chain of Procathepsin L (P07711 whole entry): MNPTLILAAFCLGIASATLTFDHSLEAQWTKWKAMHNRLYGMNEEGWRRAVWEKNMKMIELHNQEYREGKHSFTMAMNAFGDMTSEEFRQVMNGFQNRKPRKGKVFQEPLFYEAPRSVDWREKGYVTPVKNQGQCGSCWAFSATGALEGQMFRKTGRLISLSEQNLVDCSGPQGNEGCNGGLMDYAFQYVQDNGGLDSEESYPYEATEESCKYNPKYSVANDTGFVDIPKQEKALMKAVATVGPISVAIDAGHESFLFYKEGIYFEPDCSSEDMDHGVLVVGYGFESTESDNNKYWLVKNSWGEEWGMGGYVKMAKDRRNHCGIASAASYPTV

Chain of Polyadenylate-binding protein 1 (P11940 whole entry): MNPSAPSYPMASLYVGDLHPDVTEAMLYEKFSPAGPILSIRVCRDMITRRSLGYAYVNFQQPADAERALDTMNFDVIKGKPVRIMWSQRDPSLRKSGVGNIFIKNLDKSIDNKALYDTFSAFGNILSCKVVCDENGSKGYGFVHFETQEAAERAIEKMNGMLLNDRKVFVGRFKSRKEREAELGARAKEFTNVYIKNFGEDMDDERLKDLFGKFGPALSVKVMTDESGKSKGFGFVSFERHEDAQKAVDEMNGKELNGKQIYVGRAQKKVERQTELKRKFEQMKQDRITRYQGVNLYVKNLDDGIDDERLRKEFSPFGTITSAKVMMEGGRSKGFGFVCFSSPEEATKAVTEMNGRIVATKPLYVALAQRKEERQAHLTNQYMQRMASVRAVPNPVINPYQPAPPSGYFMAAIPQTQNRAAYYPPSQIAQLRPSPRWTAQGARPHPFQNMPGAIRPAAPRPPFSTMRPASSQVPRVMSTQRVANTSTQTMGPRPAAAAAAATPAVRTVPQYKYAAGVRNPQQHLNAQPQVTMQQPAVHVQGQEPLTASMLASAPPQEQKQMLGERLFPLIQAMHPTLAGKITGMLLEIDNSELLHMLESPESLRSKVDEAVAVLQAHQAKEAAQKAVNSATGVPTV

SMILES: S=C(NCc1ccccc1)N1CCn2cccc2C1c1cccnc1 (centres undefined)
EC50 [1]: 2.95 µM (active)
IC50 [2]: 22.1 µM (active)
EC50 [3]: > 60 µM (inconclusive)

SMILES: O=C(COc1ccc(C=NNC(=O)c2ccccc2O)cc1)Nc1ccccc1
IC50 [4]: > 100 µM (inactive)
IC50 [5]: > 100 µM (inactive)

IC50 (Aspartyl aminopeptidase): > 73.5 µM (not active)
IC50 (Leucine aminopeptidase): 1.39 µM (active)
IC50 (Procathepsin L): > 59.6 µM (not active)
SMILES: COC(=O)c1c(-c2ccco2)csc1NC(=O)C1CC=CCC1C(=O)O (centres undefined)

IC50 [2]: 34.4 µM (active)
SMILES: COC(=O)/C=C/c1sc2nc(C)cc(C)c2c1/N=C/N(C)C
